Measurements: patent US20070292386A9, “Vaccine formulations for intradermal delivery comprising adjuvants and antigenic agents” (priority 2004, published 2007)
Ends that are not written are not given here.

Each molecule was assayed on influenza antigen (Influenza APR834). Settings: adjuvant with Fluzone, intradermal, Balb/c mice, one immunization, sera 21 days, vs Fluzone alone.
Type: in vivo
Design: key: greater immune response (as indicated by X) as compared to the inoculums that contained Fluzone alone, or the non-immune inoculums

| Molecule | Increased Immune Response, Fluzone |
| --- | --- |
| IL-6: cytokine interleukin 6 | X |
| Interferon-gamma: cytokine, interferon produced by lymphocytes | X |
| N-formyl-NIe Leu-Phe-NIe-Tyr-Lys [Neutrophil Chemo-attractant Peptide] | X |
| Tyr-Leu-Glu-Pro-Gly-Pro-Val-Thr-Ala [Melanonin Peptide 946] | X |
| VGVAPG [Elastin Repeating Peptide, mammalian peptide adjuvant] | X |
| IL-7: cytokine interleukin-7 (protein, UniProt P13232 26-177, looked up) Interleukin-7: DCDIEGKDGKQYESVLMVSIDQLLDSMKEIGSNCLNNEFNFFKRHICDANKEGMFLFRAARKLRQFLKMNSTGDFDLHLLKVSEGTTILLNCTGQVKGRKPAALGEAQPTKSLEENKSLKEQKKLNDLCFLKRLLQEIKTCWNKILMGTKEH | X |
| IL-12: heterodimeric cytokine interleukin-12 (protein, UniProt P29459 23-219; P29460 23-328, looked up) Interleukin-12 subunit alpha: RNLPVATPDPGMFPCLHHSQNLLRAVSNMLQKARQTLEFYPCTSEEIDHEDITKDKTSTVEACLPLELTKNESCLNSRETSFITNGSCLASRKTSFMMALCLSSIYEDLKMYQVEFKTMNAKLLMDPKRQIFLDQNMLAVIDELMQALNFNSETVPQKSSLEEPDFYKTKIKLCILLHAFRIRAVTIDRVMSYLNAS Interleukin-12 subunit beta: IWELKKDVYVVELDWYPDAPGEMVVLTCDTPEEDGITWTLDQSSEVLGSGKTLTIQVKEFGDAGQYTCHKGGEVLSHSLLLLHKKEDGIWSTDILKDQKEPKNKTFLRCEAKNYSGRFTCWWLTTISTDLTFSVKSSRGSSDPQGVTCGAATLSAERVRGDNKEYEYSVECQEDSACPAAEESLPIEVMVDAVHKLKYENYTSSFFIRDIIKPDPPKNLQLKPLKNSRQVEVSWEYPDTWSTPHSYFSLTFCVQVQGKSKREKKDRVFTDKTSATVICRKNASISVRAQDRYYSSSWSEWASVPCS | X |
